The record followed here is US20250381110A1, “SKIN CARE COMPOSITION AND METHOD OF USING THE SAME” (THE PROCTER & GAMBLE COMPANY, priority 2024, published 2025).

For the experiment, the system named is p62-dependent mitophagy. As to the kind of experiment: Luciferase-p62 assay (Fluc-p62 clearance) in mouse embryonic fibroblasts. Format: cell-based. Particulars: for Mean Luminescence: Luciferase-p62 assay, mouse embryonic fibroblasts (MEFs), compounds at 10 μM; for % Activity over baseline: percentage of Luciferase-p62 clearance relative to baseline (mean luminescence in the absence of doxycycline induction); for % Activity over baseline / % Activity relative to Rapamycin: MEFs, 10 μM; for % Activity relative to Rapamycin: percentage of activity relative to rapamycin tested in the same experiment at the same concentration. The gist of the method: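 MEFs with doxycycline-inducible Fluc-p62; after induction, doxycycline removed and cells treated 48 h with compounds at 10 μM. Fluc-p62 clearance, taken as mitophagy, read by ONE-Glo+Tox luciferase with viability. Vehicle (DMSO) as negative control; activity also expressed relative to rapamycin.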

Structures can show the parent of a compound that is named as a salt.

For `CC[C@]12CCCN3CCc4c(n(c5ccccc45)[C@@](O)(C(=O)OC)C1)[C@@H]32` [Vincamine], the “Mean Luminescence” value came out at 716.24, the “% Activity over baseline” value was determined as 55.74% and the “% Activity relative to Rapamycin” value is recorded as 100.42%.

On to Schisantherin A, for which the “Mean Luminescence” value is on record as 875.42, the “% Activity over baseline” value is recorded as 45.90% and the “% Activity relative to Rapamycin” value is listed as 82.70%.

For the compound `COC(=O)[C@H]1[C@H]2C[C@@H]3c4[nH]c5cc(OC)ccc5c4CCN3C[C@H]2C[C@@H](OC(=O)c2cc(OC)c(OC)c(OC)c2)[C@@H]1OC` [Reserpine], the “Mean Luminescence” value is 915.14, the “% Activity over baseline” value was 43.44% and the “% Activity relative to Rapamycin” value is given as 78.27%.

Turning to `COc1cc(O)c(CC=C(C)C)c(O)c1C(=O)/C=C/c1ccc(O)cc1` [Xanthohumol], the “Mean Luminescence” value was determined as 485.82, the “% Activity over baseline” value stood at 69.98% and the “% Activity relative to Rapamycin” value stood at 126.08%.

`C=CCCC(=O)O` [4-Pentenoic acid]: the “Mean Luminescence” value is given as 936.28, the “% Activity over baseline” value is given as 42.14% and the “% Activity relative to Rapamycin” value came out at 75.92%.

For `CN[C@@H]1[C@H](O)[C@H](NC)[C@H]2O[C@@]3(O)C(=O)C[C@@H](C)O[C@H]3O[C@@H]2[C@H]1O` [Spectinomycin dihydrochloride], the “Mean Luminescence” value is 953.21, the “% Activity over baseline” value is 41.09% and the “% Activity relative to Rapamycin” value amounted to 74.04%.

For `CO/N=C(\C(=O)N[C@@H]1C(=O)N2C(C(=O)O)=C(CSC(=O)c3ccco3)CS[C@H]12)c1csc(N)n1` [Ceftiofur HCl], the “Mean Luminescence” value was determined as 781.02, the “% Activity over baseline” value was found to be 51.73% and the “% Activity relative to Rapamycin” value turned out to be 93.21%.

Turning to `C[C@H]1CCC/C=C/[C@@H]2C[C@H](O)C[C@H]2[C@H](O)/C=C/C(=O)O1` [Brefeldin A], the “Mean Luminescence” value is recorded as 356.17, the “% Activity over baseline” value amounted to 77.99% and the “% Activity relative to Rapamycin” value came out at 140.52%.

On to `O=C1CC[C@H](C(=O)O)N1` [D-Pyroglutamic acid], for which the “Mean Luminescence” value stood at 938.93, the “% Activity over baseline” value turned out to be 41.97% and the “% Activity relative to Rapamycin” value is on record as 75.63%.

For `NC[C@H]1O[C@H](O[C@H]2[C@H](O)[C@@H](O[C@H]3O[C@H](CO)[C@@H](O)[C@H](N)[C@H]3O)[C@H](N)C[C@@H]2N)[C@H](N)C[C@@H]1O` [Tobramycin], the “Mean Luminescence” value was found to be 971.48, the “% Activity over baseline” value stood at 39.96% and the “% Activity relative to Rapamycin” value is 72.00%.

As to `C[C@]12CC[C@@H]3c4ccc(O)cc4CC[C@H]3[C@@H]1CC[C@@H]2O` [Estradiol], the “Mean Luminescence” value came to 768.64, the “% Activity over baseline” value amounted to 52.50% and the “% Activity relative to Rapamycin” value is 94.59%.

Turning to `CC[C@H]1CN2CC[C@H]1C[C@@H]2[C@@H](O)c1ccnc2ccc(OC)cc12` [Hydroquinidine], the “Mean Luminescence” value was 958.47, the “% Activity over baseline” value worked out at 40.77% and the “% Activity relative to Rapamycin” value is reported as 73.45%.

For the compound `Nc1nc(N)nc(N)n1` [Melamine], the “Mean Luminescence” value is 960.76, the “% Activity over baseline” value is on record as 40.62% and the “% Activity relative to Rapamycin” value turned out to be 73.19%.

Consider `OCCc1ccc(O)c(O)c1` [Hydroxytyrosol], for which the “Mean Luminescence” value was 839.13, the “% Activity over baseline” value came to 48.14% and the “% Activity relative to Rapamycin” value is given as 86.74%.

For `CC(=O)C(C)=NO` [2,3-Butanedione-2-monoxime], the “Mean Luminescence” value worked out at 762.32, the “% Activity over baseline” value was 52.89% and the “% Activity relative to Rapamycin” value is 95.29%.

With `CNC(=O)c1cc(Oc2ccc(NC(=O)Nc3ccc(Cl)c(C(F)(F)F)c3)cc2)ccn1` [Sorafenib], the “Mean Luminescence” value was found to be 932.25, the “% Activity over baseline” value worked out at 42.39% and the “% Activity relative to Rapamycin” value was determined as 76.37%.

On to `O=C1c2cccc3c2[C@H](CCC3)CN1[C@@H]1CN2CCC1CC2` [Palonosetron HCl], for which the “Mean Luminescence” value came out at 915.97, the “% Activity over baseline” value came to 43.39% and the “% Activity relative to Rapamycin” value is given as 78.18%.

In the case of `CCCCc1oc2ccc(NS(C)(=O)=O)cc2c1C(=O)c1ccc(OCCCN(CCCC)CCCC)cc1` [Dronedarone], the “Mean Luminescence” value came to 550.43, the “% Activity over baseline” value is listed as 65.98% and the “% Activity relative to Rapamycin” value was 118.89%.

For `COc1cc(CNC(=O)CCCC/C=C/C(C)C)ccc1O` [Capsaicin], the “Mean Luminescence” value worked out at 832.02, the “% Activity over baseline” value is on record as 48.58% and the “% Activity relative to Rapamycin” value was determined as 87.53%.

For the compound `CCN1C(=O)C=CC1=O` [N-Ethylmaleimide (NEM)], the “Mean Luminescence” value was 668.28, the “% Activity over baseline” value was determined as 58.70% and the “% Activity relative to Rapamycin” value is given as 105.76%.

As for `N[C@@H](Cc1c[nH]c2ccc(O)cc12)C(=O)O` [Compound 5-HTP], the “Mean Luminescence” value stood at 902.36, the “% Activity over baseline” value is 44.23% and the “% Activity relative to Rapamycin” value is listed as 79.70%.

In the case of `CCC/C=C1\OC(=O)C2=C1CCC=C2` [Z-Ligustilide], the “Mean Luminescence” value is recorded as 895.67, the “% Activity over baseline” value was found to be 44.65% and the “% Activity relative to Rapamycin” value amounted to 80.44%.

`COc1cc(CC(=O)O)ccc1O` [Homovanillic acid]: the “Mean Luminescence” value came to 908.95, the “% Activity over baseline” value stood at 43.83% and the “% Activity relative to Rapamycin” value is on record as 78.96%.

Regarding `CC1=C2C[C@H]3[C@@H](CC=C4C[C@@H](O)CC[C@@]43C)[C@@H]2CC[C@]12O[C@@H]1C[C@H](C)CN[C@H]1[C@H]2C` [Cyclopamine], the “Mean Luminescence” value is reported as 471.92.

Consider `CSCCC(NC(C)=O)C(=O)O` (racemic) [N-Acetyl-DL-methionine], for which the “Mean Luminescence” value turned out to be 973.29, the “% Activity over baseline” value is given as 39.85% and the “% Activity relative to Rapamycin” value is recorded as 71.80%.

Regarding `O=C(/C=C/c1ccc(O)cc1)CC(=O)/C=C/c1ccc(O)cc1` [Bisdemethoxycurcumin], the “Mean Luminescence” value is reported as 355.33, the “% Activity over baseline” value was 78.04% and the “% Activity relative to Rapamycin” value turned out to be 140.61%.

As for `CO/N=C(\C(=O)N[C@@H]1C(=O)N2C(C(=O)OC(C)OC(C)=O)=C(COC(N)=O)CS[C@H]12)c1ccco1` (stereo partly shown) [Cefuroxime axetil], the “Mean Luminescence” value amounted to 958.52, the “% Activity over baseline” value turned out to be 40.76% and the “% Activity relative to Rapamycin” value worked out at 73.44%.

`CC(=O)[C@H]1CC[C@H]2[C@@H]3CC=C4C[C@@H](O)CC[C@]4(C)[C@H]3CC[C@]12C` [Pregnenolone]: the “Mean Luminescence” value is recorded as 870.09, the “% Activity over baseline” value was found to be 46.23% and the “% Activity relative to Rapamycin” value is 83.29%.

`COC(=O)/C=C/C(=O)OC` [Dimethyl Fumarate]: the “Mean Luminescence” value is 786.79, the “% Activity over baseline” value came out at 51.38% and the “% Activity relative to Rapamycin” value is reported as 92.57%.

`CCCCC(=O)O[C@H]1CC[C@H]2[C@@H]3CCc4cc(O)ccc4[C@H]3CC[C@]12C` [Estradiol valerate]: the “Mean Luminescence” value came to 924.65, the “% Activity over baseline” value was 42.86% and the “% Activity relative to Rapamycin” value was found to be 77.22%.

Regarding `Oc1ccccc1O` [Pyrocatechol], the “Mean Luminescence” value is given as 906.35, the “% Activity over baseline” value worked out at 43.99% and the “% Activity relative to Rapamycin” value is 79.25%.

On to `C/C(=C\CNc1ncnc2nc[nH]c12)CO` [trans-Zeatin], for which the “Mean Luminescence” value is reported as 994.70, the “% Activity over baseline” value is 38.53% and the “% Activity relative to Rapamycin” value is given as 69.42%.

Take `Nc1ccc(O)cc1` [Compound 4-Aminophenol, 4-Aminophenol]: the “Mean Luminescence” value turned out to be 482.45, the “% Activity over baseline” value is reported as 70.18% and the “% Activity relative to Rapamycin” value is given as 126.45%.

As to `C=C1CCC2C(C=C(C)C(=O)C3(OC(C)=O)CC(C)C(OC(=O)c4ccccc4)C3C1OC(C)=O)C2(C)C` (stereo not shown) [5,15-Diacetyl-3-benzoyllathyrol], the “Mean Luminescence” value is recorded as 927.14, the “% Activity over baseline” value is recorded as 42.70% and the “% Activity relative to Rapamycin” value turned out to be 76.94%.

On to `N[C@@H]1CCCCN(c2c(F)cc3c(=O)c(C(=O)O)cn(C4CC4)c3c2Cl)C1` [Besifloxacin HCl], for which the “Mean Luminescence” value was determined as 777.82, the “% Activity over baseline” value is 51.93% and the “% Activity relative to Rapamycin” value stood at 93.56%.

For the compound `CC(C)=CCC[C@](C)(O[C@@H]1O[C@H](CO)[C@@H](O)[C@H](O)[C@H]1O)[C@H]1CC[C@]2(C)[C@@H]1[C@H](O)C[C@@H]1[C@@]3(C)CC[C@H](O)C(C)(C)[C@@H]3[C@@H](O[C@@H]3O[C@H](CO)[C@@H](O)[C@H](O)[C@H]3O)C[C@]12C` [Ginsenoside Rg1], the “Mean Luminescence” value is on record as 947.81, the “% Activity over baseline” value is listed as 41.42% and the “% Activity relative to Rapamycin” value was determined as 74.64%.

Regarding `CCc1c(Cl)c(O)c(Cl)c(O)c1C(=O)O[C@H]1[C@H](O)[C@H](OC)[C@H](OC/C2=C\C=C\C[C@H](O)/C(C)=C/[C@H](CC)[C@@H](O[C@@H]3OC(C)(C)[C@@H](OC(=O)C(C)C)[C@H](O)[C@@H]3O)/C(C)=C/C(C)=C/C[C@@H]([C@@H](C)O)OC2=O)O[C@@H]1C` [Fidaxomicin], the “Mean Luminescence” value is 262.87, the “% Activity over baseline” value worked out at 83.75% and the “% Activity relative to Rapamycin” value is recorded as 150.90%.

Turning to `COc1c(C)c2c(c(O)c1C/C=C(\C)CCC(=O)O)C(=O)OC2` [Mycophenolic acid], the “Mean Luminescence” value was found to be 821.72, the “% Activity over baseline” value was 49.22% and the “% Activity relative to Rapamycin” value is recorded as 88.68%.
